The target in this test is human CB1 (cannabinoid receptor 1) (Homo sapiens, UniProt P21554). The test is described as follows: CB1 receptor inhibition effect: calcium ion influx assay (Fluo-4 NW) in Chem-1 cells after 1 μM R-(+)-WIN55212-2. The following applies: calcium ion influx in Chem-1 cells expressing human CB1, 1 μM R-(+)-WIN55212-2. It counts as cell-based. On the procedure:
When cells in which the cannabinoid receptor 1 (CB1) is stably expressed are treated with a CB1 receptor agonist, the CB1 receptor is activated and influx of calcium ions into the cells increases. CB1 receptor inhibition effect of a test compound can be evaluated by measuring the degree of calcium influx inhibition after treating with the test compound.
First, Chem-1 cells (Chemicon International, #HTS019C) in which human CB1 cDNA is expressed stably were seeded onto a 96-well cell culture plate at a density of ˜50,000 cells/well and incubated overnight in a 5% CO2 incubator at 37° C. The next day, the culture medium was discarded and the cells were cautiously washed once using an assay buffer (HBSS containing 20 mM HEPES and 2.5 mM probenecid) with 200 μL/well. Calcium ion influx was measured using an assay kit (Fluo-4 NW calcium assay kit: Molecular Probes™, #F36206) according to the manufacturer's instructions. The compounds of Examples of desired concentration to be measured were comprised to 0.5% DMSO. For control, only 0.5% DMSO was used without the compounds of Examples. Reaction time was 10 minutes. After treating the Chem-1 cells stably expressing the CB1 receptor with 1 μM R-(+)-WIN55212-2 (Sigma, #W102), a CB1 receptor agonist, calcium ion (Ca^2+) flux induced thereby was measured for 80 seconds using Flex Station 3 (Molecular Device, USA).
The difference in calcium ion concentration of the cells treated with the compounds of Examples or those treated with 1 μM R-(+)-WIN55212-2 was obtained from the difference of the maximum and minimum values during the 80 seconds. Then, % inhibition of the compounds for the CB1 receptor was calculated using the following equation. % inhibition={1−(ΔRFUcompound−ΔRFUBlank)/(ΔRFUControl−ΔRFUBlank)}×100 [Equation]
ΔRFU: maximum relative fluorescence units−minimum relative fluorescence units
ΔRFUCompound: difference in maximum and minimum RFUs in the well where the compounds of Examples dissolved in DMSO to a final concentration of 0.5% and 1 μM R-(+)-WIN55212-2 dissolved in DMSO to a final concentration of 0.5% were added
ΔRFUBlank: difference in maximum and minimum RFUs in the well to which only 1% DMSO was added
ΔRFUControl: difference in maximum and minimum RFUs in the well where 0.5% DMSO and 1 μM R-(+)-WIN55212-2 dissolved in DMSO to a final concentration of 0.5% were added

Sequence of human CB1 (cannabinoid receptor 1) (P21554 whole entry): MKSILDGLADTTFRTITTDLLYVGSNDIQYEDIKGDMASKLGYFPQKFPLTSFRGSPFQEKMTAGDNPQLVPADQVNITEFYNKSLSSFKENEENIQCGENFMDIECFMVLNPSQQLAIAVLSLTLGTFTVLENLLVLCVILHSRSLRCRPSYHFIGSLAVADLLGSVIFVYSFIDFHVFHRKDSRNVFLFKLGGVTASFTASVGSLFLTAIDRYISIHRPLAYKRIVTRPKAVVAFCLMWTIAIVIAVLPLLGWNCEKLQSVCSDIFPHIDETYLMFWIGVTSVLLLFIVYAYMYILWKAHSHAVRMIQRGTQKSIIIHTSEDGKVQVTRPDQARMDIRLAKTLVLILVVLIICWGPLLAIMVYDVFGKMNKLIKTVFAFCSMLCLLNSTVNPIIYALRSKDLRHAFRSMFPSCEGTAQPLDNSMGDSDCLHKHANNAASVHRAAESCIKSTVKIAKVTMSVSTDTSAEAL

On to `Cc1nn2c(-c3ccccc3)cc(N3CCC[C@@H]3CO)nc2c1-c1ccc(Cl)cc1` [Example 305], for which the inhibition at 3 µM (compound at 3 μM) is approximately 5%. Take `Cc1cccc(-c2cc(N3CCC[C@H]3CO)nc3c(-c4ccc(F)cc4)c(C)nn23)c1` [Example 167]: the IC50 is 250 nM.

Consider `CCOCc1nn2c(-c3ccc(F)cc3)cc(N(C)CCO)nc2c1-c1ccc(OC)cc1` [Example 245], for which the IC50 stood at 440 nM. As for `Cc1cccc(-c2cc(N3CCC[C@H]3CO)nc3c(-c4ccc(C(F)F)cc4)c(C)nn23)c1` [Example 160], the IC50 was 110 nM. Same read-out and setting: for `Cc1nn2c(-c3ccc(F)c(F)c3)cc(N3CCC[C@H]3CO)nc2c1-c1ccc(Cl)cc1` [Example 21] the value was 51 nM. On to `Cc1nn2c(-c3cccc(Cl)c3)cc(N3CCC[C@H]3CO)nc2c1-c1ccc(Cl)cc1` [Example 2, (S)-(1-(3-(4-chlorophenyl)-7-(3-chlorophenyl)-2-methylpyrazolo[1,5-a]pyrimidin-5-yl)pyrrolidin-2-yl)methanol], for which the concentration for half-maximal inhibition (IC50) was found to be 100 nM. `C=Cc1ccc(-c2c(C)nn3c(-c4cccc(F)c4)cc(N4CCC[C@H]4CO)nc23)cc1` [Example 117]: the IC50 was 240 nM. As to `COCc1nn2c(-c3ccc(F)cc3)cc(N3CCC[C@H]3CO)nc2c1-c1ccc(OC)cc1` [Example 222], the 50% inhibitory concentration (IC50) came to 8 nM.

As for `CCc1cccc(-c2cc(N3CCC[C@H]3CO)nc3c(-c4ccc5c(c4)OCO5)c(C)nn23)c1` [Example 60], the IC50 was found to be 210 nM.

For `CCCOc1ccc(-c2c(C)nn3c(-c4ccc(F)cc4)cc(N4CCC[C@H]4CO)nc23)cc1` [Example 74], the IC50 was 160 nM. As for `CCCOc1ccc(-c2c(C)nn3c(-c4ccc(F)cc4)cc(N4CCC[C@H]4CO)nc23)cc1F` [Example 100], the IC50 worked out at 310 nM.

On to `Cc1nn2c(-c3ccc(F)cc3F)cc(N3CCC[C@H]3CO)nc2c1-c1ccc(Cl)cc1` [Example 22], for which the concentration for half-maximal inhibition (IC50) turned out to be 110 nM. Take `COc1ccc(-c2c(C)nn3c(-c4ccc(F)c(F)c4)cc(N4CCC[C@H]4CO)nc23)cc1` [Example 38, (S)-{1-[7-(3,4-difluorophenyl)-3-(4-methoxyphenyl)-2-methylpyrazolo[1,5-a]pyrimidin-5-yl)pyrrolidin-2-yl)methanol]: the half-inhibitory concentration (IC50) was 100 nM. On to `COCc1nn2c(-c3cccc(F)c3)cc(N(C)CCO)nc2c1-c1ccc(Cl)cc1` [Example 261], for which the half-maximal inhibitory concentration (IC50) worked out at 9 nM. For the molecule `CCOCc1nn2c(-c3cccc(OC)c3)cc(NCCO)nc2c1-c1ccc2c(c1)OCO2` [Example 268], the IC50 came out at 300 nM. On to `COCc1nn2c(-c3cccc(F)c3)cc(N3CCC[C@H]3CO)nc2c1-c1ccc(OC)cc1` [Example 223], for which the concentration for half-maximal inhibition (IC50) worked out at 5 nM. Consider `CCCCc1nn2c(-c3cccc(C(F)(F)F)c3)cc(N3CCC[C@H]3CO)nc2c1-c1ccc(C)cc1` [Example 288], for which the concentration for half-maximal inhibition (IC50) came out at 8 nM.

On to `COc1ccc(-c2c(C)nn3c(-c4ccc(C)cc4)cc(N4CCC[C@H]4CO)nc23)cc1` [Example 42], for which the IC50 was determined as 350 nM. The same measure, in the same setting: for `CCOCc1nn2c(-c3cccc(OC)c3)cc(N3CCC[C@H]3CO)nc2c1-c1ccc(C)cc1` [Example 203] the value was 30 nM; for `Cc1ccccc1-c1cc(N2CCC[C@H]2CO)nc2c(-c3ccc(Cl)cc3)c(C)nn12` [Example 13], 300 nM; for `COCc1nn2c(-c3ccc(F)cc3)cc(N(C)CCO)nc2c1-c1ccc(Cl)cc1` [Example 260], 7 nM.

Regarding `CCOc1ccc(-c2c(C)nn3c(-c4cccc(F)c4)cc(N4CCC[C@H]4CO)nc23)cc1` [Example 112], the IC50 was 130 nM. `COCc1nn2c(-c3cccc(C(F)(F)F)c3)cc(N3CCC[C@H]3CO)nc2c1-c1ccc2c(c1)OCO2` [Example 238]: the IC50 was found to be 24 nM. On the same count and under the same terms, to `COCc1nn2c(-c3cccc(F)c3)cc(N3CCC[C@H]3CO)nc2c1-c1ccc(Cl)cc1` [Example 232] belongs 4 nM; to `CCc1ccc(-c2c(C)nn3c(-c4cccc(F)c4)cc(N4CCC[C@H]4CO)nc23)cc1` [Example 116], 160 nM; to `Cc1nn2c(-c3ccc(F)cc3)cc(N3CCC[C@H]3CO)nc2c1-c1ccc2c(c1)OCO2` [Example 66], 140 nM. In the case of `COc1cccc(-c2cc(N3CCC[C@H]3CO)nc3c(-c4ccc(OC)c(F)c4)c(C)nn23)c1` [Example 186], the IC50 was found to be 220 nM. Same read-out and setting: for `COc1ccc(-c2c(C)nn3c(-c4ccc(OC)cc4)cc(N4CCC[C@H]4CO)nc23)cc1` [Example 40] the value was 350 nM. As for `Cc1ccc(-c2c(C)nn3c(-c4cc(F)cc(F)c4)cc(N4CCC[C@H]4CO)nc23)cc1` [Example 35], the concentration for half-maximal inhibition (IC50) amounted to 410 nM. Same read-out and setting: to `CCc1cccc(-c2cc(N3CCC[C@H]3CO)nc3c(-c4ccc(C)cc4)c(C)nn23)c1` [Example 31] belongs 130 nM; to `CCc1nn2c(-c3cccc(F)c3)cc(N3CCC[C@H]3CO)nc2c1-c1ccc(C)cc1` [Example 200], 110 nM. Regarding `Cc1ccc(-c2cnn3c(-c4cc(F)cc(F)c4)cc(N4CCC[C@H]4CO)nc23)cc1` [Example 273], the IC50 worked out at 230 nM. With `Cc1ccc(-c2c(C)nn3c(-c4ccccc4)cc(N4CCC[C@H]4CO)nc23)cc1` [Example 28], the half-maximal inhibitory concentration (IC50) turned out to be 120 nM. Turning to `COc1cccc(-c2cc(N3CCC[C@H]3CO)nc3c(-c4ccc(C(F)F)cc4)c(C)nn23)c1` [Example 178], the IC50 worked out at 120 nM.

Regarding `COc1ccc(-c2c(C)nn3c(-c4cccc(F)c4)cc(N4CCC[C@H]4CO)nc23)cc1` [Example 111], the 50% inhibitory concentration (IC50) was determined as 60 nM. As to `Cc1nn2c(-c3cccc(C(F)(F)F)c3)cc(N3CCC[C@H]3CO)nc2c1-c1ccc(Cl)cc1` [Example 9], the IC50 came out at 120 nM.

As for `Cc1ccc(-c2cnn3c(-c4ccc(F)cc4)cc(N4CCC[C@H]4CO)nc23)cc1` [Example 269, (S)-(1-(3-(4-methylphenyl)-7-(4-fluorophenyl)-pyrazolo[1,5-a]pyrimidin-5-yl)pyrrolidin-2-yl)methanol], the 50% inhibitory concentration (IC50) worked out at 450 nM. Consider `CCOc1ccc(-c2c(C)nn3c(-c4cccc(C(F)(F)F)c4)cc(N4CCC[C@H]4CO)nc23)cc1` [Example 124], for which the half-maximal inhibitory concentration (IC50) was found to be 70 nM.

As to `CCOc1ccc(-c2c(C)nn3c(-c4cccc(Cl)c4)cc(N4CCC[C@H]4CO)nc23)cc1` [Example 171], the half-maximal inhibitory concentration (IC50) was 240 nM. For the molecule `CCOCc1nn2c(-c3cccc(C(F)(F)F)c3)cc(N(C)CCO)nc2c1-c1ccc(OC)cc1` [Example 247], the IC50 came to 16 nM. Take `Cc1nn2c(-c3ccccc3)cc(N3CCC[C@H]3CO)nc2c1-c1ccccc1` [Example 195]: the concentration for half-maximal inhibition (IC50) turned out to be 780 nM. For `CCOc1ccc(-c2c(C)nn3c(-c4ccccc4)cc(N4CCC[C@H]4CO)nc23)cc1` [Example 47, (S)-(1-(3-(4-ethoxyphenyl)-7-phenyl-2-methylpyrazolo[1,5-a]pyrimidin-5-yl)pyrrolidin-2-yl)methanol], the IC50 amounted to 130 nM. Consider `CCOc1ccc(-c2c(C)nn3c(-c4ccc(F)c(F)c4)cc(N4CCC[C@H]4CO)nc23)cc1` [Example 48, (S)-{1-[7-(3,4-difluorophenyl)-3-(4-ethoxyphenyl)-2-methylpyrazolo[1,5-a]pyrimidin-5-yl)pyrrolidin-2-yl)methanol], for which the IC50 came to 180 nM.

On to `Cc1nn2c(-c3ccc(F)cc3)cc(N3CCC[C@H]3CO)nc2c1-c1ccc(OC(C)C)cc1` [Example 85], for which the IC50 worked out at 470 nM. Still for that read-out and setting: for `CCc1cccc(-c2cc(N3CCC[C@H]3CO)nc3c(-c4ccc(OC)cc4)c(C)nn23)c1` [Example 43] the value was 210 nM.

For the origin of these results see patent US8975264B2, “Compound acting as a cannabinoid receptor-1 inhibitor” (Amorepacific Corporation, priority 2010, dated 2015).
